Reference: ChEMBL document CHEMBL5360644, “Structure-Activity Relationship Studies of 2,4,5-Trisubstituted Pyrimidine Derivatives Leading to the Identification of a Novel and Potent Sirtuin 5 Inhibitor against Sepsis-Associated Acute Kidney Injury” (J Med Chem, 2023)
*1 amine or outer side, *2 acyl side, *3 side chain or, on linkers, in order; H or OH if unused. Where a SMILES comes first, the peptide text is derived from it. The star is where a group is joined. AMC = Cc1cc(=O)oc2cc(N*)ccc12; Suc = O=C(CCC(=O)[*:2])[*:1]

What was measured:
[1] = target: T1, NAD-dependent protein deacylase sirtuin-5, mitochondrial (Homo sapiens, UniProt Q9NXA8); experiment: Inhibition of human SIRT5 (34 to 269 residues) using Ac-Leu-Gly-Ser-Lys (Su)-AMC as fluorogenic substrate in presence of NAD+
Target sequence in this assay (Q9NXA8 whole entry, the tested form may be a part): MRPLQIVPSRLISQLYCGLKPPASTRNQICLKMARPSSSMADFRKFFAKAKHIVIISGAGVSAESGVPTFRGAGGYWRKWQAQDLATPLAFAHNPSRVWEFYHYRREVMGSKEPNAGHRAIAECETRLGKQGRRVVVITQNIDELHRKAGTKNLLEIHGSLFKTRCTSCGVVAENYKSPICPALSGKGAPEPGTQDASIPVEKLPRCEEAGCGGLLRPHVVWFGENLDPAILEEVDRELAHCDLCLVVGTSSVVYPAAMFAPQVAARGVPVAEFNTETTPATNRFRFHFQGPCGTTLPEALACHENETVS

[2] = target: T2, NAD-dependent protein deacetylase sirtuin-2 (Homo sapiens, UniProt Q8IXJ6); experiment: Inhibition of recombinant SIRT2 (unknown origin) using Ac-Glu-Thr-Asp-Lys (Dec)-AMC as substrate
T2 sequence (Q8IXJ6 whole entry): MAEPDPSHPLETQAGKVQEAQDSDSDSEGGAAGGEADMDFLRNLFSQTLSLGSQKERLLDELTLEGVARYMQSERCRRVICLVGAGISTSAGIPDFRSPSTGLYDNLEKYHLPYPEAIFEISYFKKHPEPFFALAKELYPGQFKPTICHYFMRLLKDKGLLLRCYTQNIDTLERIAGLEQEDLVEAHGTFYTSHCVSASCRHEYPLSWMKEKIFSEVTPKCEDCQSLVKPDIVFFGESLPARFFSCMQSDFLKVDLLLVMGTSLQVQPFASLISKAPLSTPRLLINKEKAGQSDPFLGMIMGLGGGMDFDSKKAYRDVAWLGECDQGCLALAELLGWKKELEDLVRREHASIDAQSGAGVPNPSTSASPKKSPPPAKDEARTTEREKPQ

[3] = target: T1, NAD-dependent protein deacylase sirtuin-5, mitochondrial; experiment: Binding affinity to human SIRT5 (34 to 269 residues) assessed as thermal stabilization by measuring change in melting temperature at 60 uM incubated for 10 mins in presence of NAD+ by SYPRO orange dye based thermal shift assay
Target sequence in this assay (Q9NXA8 37-310 limits assumed): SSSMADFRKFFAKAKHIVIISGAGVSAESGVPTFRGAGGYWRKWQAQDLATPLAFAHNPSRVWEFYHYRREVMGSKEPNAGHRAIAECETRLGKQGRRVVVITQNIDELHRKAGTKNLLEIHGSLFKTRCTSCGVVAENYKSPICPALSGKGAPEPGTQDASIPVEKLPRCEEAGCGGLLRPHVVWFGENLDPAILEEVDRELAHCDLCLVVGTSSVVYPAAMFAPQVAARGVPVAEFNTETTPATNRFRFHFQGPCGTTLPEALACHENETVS

[4] = target: T1, NAD-dependent protein deacylase sirtuin-5, mitochondrial; experiment: Binding affinity to human SIRT5 (34 to 269 residues) assessed as thermal stabilization by measuring melting temperature at 60 uM incubated for 10 mins in presence of NAD+ by SYPRO orange dye based thermal shift assay (reference value: 66.32 degreeC)
Target sequence in this assay (Q9NXA8 37-310 limits assumed): as above

Compound	IC50 [1] [µM]	other results
COc1cc(NC(=O)c2cnc(Nc3ccccc3Cl)nc2NCCCNC(=S)NCCC(=O)O)cc(OC)c1	1.54	–
O=C(O)CCNC(=S)NCCCNc1nc(Nc2ccccc2Cl)ncc1C(=O)Nc1ccccc1	3.18	–
O=C(O)CCNC(=S)NCCCNc1nc(Nc2ccccc2Cl)ncc1C(=O)N1CCCC(c2ccccc2)C1 (stereo not given)	3.66	–
CC[C@@H](NC(=O)c1cnc(Nc2ccccc2Cl)nc1NCCCNC(=S)NCCC(=O)O)c1ccccc1	0.58	–
O=C(O)CCNC(=S)NCCCNc1nc(Nc2ccccc2Cl)ncc1C(=O)N1CC[C@H](c2ccccc2)C1	0.31	IC50 [2]: 39.6 µM
O=C(O)CCNC(=S)NCCCNc1nc(Nc2ccccc2Cl)ncc1C(=O)Nc1ccc2ccccc2c1	5.15	–
C[C@H](NC(=O)c1cnc(Nc2ccccc2Cl)nc1NCCCNC(=S)NCCC(=O)O)c1ccccc1	1.74	–
CC[C@H](NC(=O)c1cnc(Nc2ccccc2Cl)nc1NCCCNC(=S)NCCC(=O)O)c1ccccc1	3.72	–
O=C(O)CCNC(=S)NCCCNc1nc(Nc2ccccc2Cl)ncc1C(=O)N1CCC(c2ccccc2)C1 (stereo not given)	0.53	–
O=C(O)CCNC(=S)NCCCNc1nc(Nc2ccccc2Cl)ncc1C(=O)N[C@H]1CCCC[C@@H]1O	8.95	–
CC(C)(C)OC(=O)[C@@H](NC(=O)c1cnc(Nc2ccccc2Cl)nc1NCCCNC(=S)NCCC(=O)O)c1ccccc1	1.55	–
O=C(O)CCNC(=S)NCCCNc1nc(Nc2ccccc2Cl)ncc1C(=O)N1CCC(c2ccccc2)CC1	3.54	–
O=C(O)CCNC(=S)NCCCNc1nc(Nc2ccccc2Cl)ncc1C(=O)Nc1ccccc1-c1ccccc1	4.84	–
O=C(O)CCNC(=S)NCCCNc1nc(Nc2ccccc2Cl)ncc1C(=O)Nc1cccc2ccccc12	2.95	–
COc1ccccc1NC(=O)c1cnc(Nc2ccccc2Cl)nc1NCCCNC(=S)NCCC(=O)O	5.37	–
CC(=O)N[C@@H](CC(C)C)C(=O)NCC(=O)N[C@@H](CO)C(=O)N[C@@H](CCCCNC(=O)CCC(=O)O)C(=O)Nc1ccc2c(C)cc(=O)oc2c1 (Ac-LGSK(Suc)-{AMC})	–	ΔTm [3]: 0.97 °C; Tm [4]: 67.3 °C
O=C(O)CCNC(=S)NCCCNc1nc(Nc2ccccc2Cl)ncc1C(=O)N1CCCC1	21.5	–
O=C(O)CCNC(=S)NCCCNc1nc(Nc2ccccc2Cl)ncc1C(=O)N[C@H]1c2ccccc2C[C@H]1O	4.18	–
O=C(O)CCNC(=S)NCCCNc1nc(Nc2ccccc2Cl)ncc1C(=O)NC1(c2ccccc2)CC1	2.8	–
O=C(O)CCNC(=S)NCCCNc1nc(Nc2ccccc2Cl)ncc1C(=O)N1CCOCC1	8.6	–
CC(C)(C)OC(=O)[C@H](NC(=O)c1cnc(Nc2ccccc2Cl)nc1NCCCNC(=S)NCCC(=O)O)c1ccccc1	1.82	–
O=C(O)CCNC(=S)NCCCNc1nc(Nc2ccccc2Cl)ncc1C(=O)N[C@@H]1C[C@H]1c1ccc(F)c(F)c1	1.24	–
O=C(O)CCNC(=S)NCCCNc1nc(Nc2ccccc2Cl)ncc1C(=O)N[C@@H](Cc1ccccc1)C(=O)O	1.71	–
O=C(O)CCNC(=S)NCCCNc1nc(Nc2ccccc2Cl)ncc1C(=O)NCCc1cc2ccccc2[nH]1	1.43	–
CC(C)c1ccccc1NC(=O)c1cnc(Nc2ccccc2Cl)nc1NCCCNC(=S)NCCC(=O)O	2.82	–
O=C(O)CCNC(=S)NCCCNc1nc(Nc2ccccc2Cl)ncc1C(=O)NCc1ccccc1	1.11	–
CC(CCc1ccccc1)NC(=O)c1cnc(Nc2ccccc2Cl)nc1NCCCNC(=S)NCCC(=O)O (stereo not given)	1.6	–
O=C(O)CCNC(=S)NCCCNc1nc(Nc2ccccc2Cl)ncc1C(=O)N[C@@H]1C[C@H]1c1ccccc1	2.54	–
C[C@@H](NC(=O)c1cnc(Nc2ccccc2Cl)nc1NCCCNC(=S)NCCC(=O)O)c1ccccc1	1.08	–
O=C(O)CCNC(=S)NCCCNc1nc(Nc2ccccc2Cl)ncc1C(=O)N1CCCC1c1ccccc1 (stereo not given)	27.3	–

Further lines, with some results ahead:

IC50 [1] [µM]	Compound	other results
5.87	CCOC(=O)c1cnc(Nc2ccccc2F)nc1NCCCNC(=S)NCCC(=O)O	–
9.57	CCOC(=O)c1cnc(Nc2cccc(F)c2)nc1NCCCNC(=S)NCCC(=O)O	–
2.38	CCOC(=O)c1cnc(Nc2cccc(F)c2C)nc1NCCCNC(=S)NCCC(=O)O	–
1.64	O=C(O)CCNC(=S)NCCCNc1nc(Nc2ccccc2Cl)ncc1C(=O)O	–
4.06	CCOC(=O)c1cnc(Nc2ccccc2Br)nc1NCCCNC(=S)NCCC(=O)O	–
2.3	CCOC(=O)c1cnc(Nc2cccc(C)c2Br)nc1NCCCNC(=S)NCCC(=O)O	–
10.7	CCOC(=O)c1cnc(Nc2ccccc2OC)nc1NCCCNC(=S)NCCC(=O)O	–
2.77	CC(C)OC(=O)c1cnc(Nc2ccccc2Cl)nc1NCCCNC(=S)NCCC(=O)O	–
9.4	CCOC(=O)c1cnc(Nc2ccc(Cl)cc2)nc1NCCCNC(=S)NCCC(=O)O	–
6.9	CCOC(=O)c1cnc(Nc2cc(OC)cc(OC)c2)nc1NCCCNC(=S)NCCC(=O)O	–
17.1	CCOC(=O)c1cnc(Nc2cccc(OC)c2)nc1NCCCNC(=S)NCCC(=O)O	–
9.56	O=C(O)CCNC(=S)NCCCNc1nc(Nc2ccccc2Cl)ncc1C(=O)NC1CC1	–
2.82	CCOC(=O)c1cnc(Nc2c(F)cccc2F)nc1NCCCNC(=S)NCCC(=O)O	–
1.9	CCOC(=O)c1cnc(Nc2ccccc2Cl)nc1NCCCNC(=S)NCCC(=O)O	–
2.39	CCOC(=O)c1cnc(Nc2cccc(F)c2Cl)nc1NCCCNC(=S)NCCC(=O)O	–
3.98	CCOC(=O)c1cnc(Nc2ccccc2-c2ccccc2)nc1NCCCNC(=S)NCCC(=O)O	–
3.53	CCOC(=O)c1cnc(Nc2ccccc2C)nc1NCCCNC(=S)NCCC(=O)O	–

IC50 [1] [µM]	Compound	other results
10.5	CCOC(=O)c1cnc(Nc2ccc(OC)cc2)nc1NCCCNC(=S)NCCC(=O)O	–
16.9	CCOC(=O)c1cnc(Nc2cccc(C)c2)nc1NCCCNC(=S)NCCC(=O)O	–
7.52	CCOC(=O)c1cnc(Nc2ccc(Br)cc2)nc1NCCCNC(=S)NCCC(=O)O	–
11.6	CCOC(=O)c1cnc(Nc2ccc(C)cc2)nc1NCCCNC(=S)NCCC(=O)O	–
3.16	CCOC(=O)c1cnc(Nc2c(C)cccc2C)nc1NCCCNC(=S)NCCC(=O)O	–
7.83	CCCNC(=O)c1cnc(Nc2ccccc2Cl)nc1NCCCNC(=S)NCCC(=O)O	–
7.67	CCOC(=O)c1cnc(Nc2ccccc2)nc1NCCCNC(=S)NCCC(=O)O	–
5.45	Cc1ccccc1NC(=O)c1cnc(Nc2ccccc2Cl)nc1NCCCNC(=S)NCCC(=O)O	–
3.34	COC(=O)c1cnc(Nc2ccccc2Cl)nc1NCCCNC(=S)NCCC(=O)O	–
7.54	CCOC(=O)c1cnc(Nc2ccc(F)cc2)nc1NCCCNC(=S)NCCC(=O)O	–
22	CCOC(=O)c1cnc(Nc2cccc(Br)c2)nc1NCCCNC(=S)NCCC(=O)O	–
13.4	CCOC(=O)c1cnc(Nc2cccc(Cl)c2)nc1NCCCNC(=S)NCCC(=O)O	–
2.7	CCOC(=O)c1cnc(Nc2ccc(Br)cc2C)nc1NCCCNC(=S)NCCC(=O)O	–
7.93	O=C(O)CCNC(=S)NCCCNc1nc(Nc2ccccc2Cl)ncc1C(=O)NC1CCC1	–
3.48	CCOC(=O)c1cnc(Nc2cccc(Br)c2C)nc1NCCCNC(=S)NCCC(=O)O	–
6.72	CC(C)CNC(=O)c1cnc(Nc2ccccc2Cl)nc1NCCCNC(=S)NCCC(=O)O	–
